From patent publication US20100197797A1 (priority 2009, published 2010)
Read-outs that look alike come from different tables or passages of the source.

What was measured:
Human pharmacokinetics = settings: in vivo
Procedure: The pharmacokinetic parameters described herein include area under the plasma concentration-time curve (AUC0-t and AUC0-∞), maximum plasma concentration (Cmax), time of maximum plasma concentration (Tmax) and terminal elimination half-life (T1/2). The time of maximum concentration, Tmax, is determined as the time corresponding to Cmax. Area under the plasma concentration-time curve up to the time corresponding to the last measurable concentration (AUC0-t) is calculated by numerical integration using the linear trapezoidal rule as follows: […]

[1] = Urinary excretion after oral 14C-milnacipran hydrochloride; format: in vivo, human
Description: Milnacipran and its metabolites are eliminated primarily by renal excretion. […] The l-milnacipran carbamoyl-O-glucuronide was the major metabolite excreted in urine and accounted for approximately 17% of the dose; approximately 2% of the dose was excreted in urine as d-milnacipran carbamoyl-O-glucuronide.

fibromyalgia patients = experiment: Placebo-controlled trials in fibromyalgia patients (safety); format: in vivo, human; settings: human, in vivo
Description: The stated frequencies of adverse reactions represent the proportion of individuals who experienced, at least once, a treatment-emergent adverse reaction of the type listed. A reaction was considered treatment emergent if it occurred for the first time or worsened while receiving therapy following baseline evaluation.

patients = experiment: Spontaneous / postmarketing reports; format: in vivo, human; settings: in vivo
Description: However, because these adverse reactions were reported voluntarily from a population of uncertain size, it is not always possible to reliably estimate their frequency or establish a causal relationship to drug exposure.

[2] = set-up: species or system human; settings: in vivo, po
Description: AUC0-∞ and T½ were similar in healthy subjects and subjects with mild and moderate hepatic impairment. […] Caution should be exercised in patients with severe hepatic impairment.

[3] = human, in vivo
Description: Dosage adjustment based on gender is not necessary.

[4] = Drug interaction studies in healthy adult subjects; format: in vivo, human; settings: human, in vivo
Procedure: The drug interaction studies described below were conducted in healthy adult subjects.

[5] = target: neuronal serotonin reuptake (Homo sapiens, UniProt P31645); experiment: Serotonin uptake inhibition in vitro; format: biochemical; settings: preclinical studies
neuronal serotonin reuptake, sequence (P31645 whole entry): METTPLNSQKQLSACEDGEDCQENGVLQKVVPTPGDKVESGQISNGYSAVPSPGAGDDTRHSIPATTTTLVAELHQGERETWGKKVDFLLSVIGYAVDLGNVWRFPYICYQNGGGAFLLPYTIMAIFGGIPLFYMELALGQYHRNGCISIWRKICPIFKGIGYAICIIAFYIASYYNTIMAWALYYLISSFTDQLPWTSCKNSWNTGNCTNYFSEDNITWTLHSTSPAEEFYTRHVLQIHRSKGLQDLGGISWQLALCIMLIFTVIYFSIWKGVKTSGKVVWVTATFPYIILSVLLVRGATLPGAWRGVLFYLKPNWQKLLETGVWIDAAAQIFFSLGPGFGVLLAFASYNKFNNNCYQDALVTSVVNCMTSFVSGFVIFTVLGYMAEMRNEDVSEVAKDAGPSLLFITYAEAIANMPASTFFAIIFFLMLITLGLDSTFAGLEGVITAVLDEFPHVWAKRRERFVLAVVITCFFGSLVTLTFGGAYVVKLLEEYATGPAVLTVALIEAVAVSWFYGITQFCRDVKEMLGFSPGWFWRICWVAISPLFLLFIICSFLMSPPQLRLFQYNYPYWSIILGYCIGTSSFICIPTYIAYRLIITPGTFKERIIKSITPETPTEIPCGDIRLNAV

uptake of dopamine [6] = target: T1, uptake of dopamine (Homo sapiens, UniProt Q01959); experiment: Dopamine uptake; format: biochemical; settings: preclinical studies
T1 sequence (Q01959 whole entry): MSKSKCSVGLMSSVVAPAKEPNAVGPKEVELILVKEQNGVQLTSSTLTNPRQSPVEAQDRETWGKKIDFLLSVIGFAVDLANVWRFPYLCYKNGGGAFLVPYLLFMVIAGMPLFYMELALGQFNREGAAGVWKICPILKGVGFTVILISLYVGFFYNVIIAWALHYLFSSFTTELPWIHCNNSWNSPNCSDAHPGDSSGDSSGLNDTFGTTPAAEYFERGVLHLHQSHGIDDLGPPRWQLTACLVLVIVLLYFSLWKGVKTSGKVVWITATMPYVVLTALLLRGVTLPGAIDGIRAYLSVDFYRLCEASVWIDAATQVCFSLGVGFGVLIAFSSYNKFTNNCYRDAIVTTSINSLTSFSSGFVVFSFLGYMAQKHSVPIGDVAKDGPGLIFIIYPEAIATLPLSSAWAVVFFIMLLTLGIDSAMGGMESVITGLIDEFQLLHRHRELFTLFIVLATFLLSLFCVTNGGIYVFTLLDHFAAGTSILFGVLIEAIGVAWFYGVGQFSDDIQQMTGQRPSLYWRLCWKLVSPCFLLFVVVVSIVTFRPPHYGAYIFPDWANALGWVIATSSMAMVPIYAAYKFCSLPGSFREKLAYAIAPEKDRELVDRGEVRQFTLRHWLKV

[7] = test system: serotonergic (5-HT1-7) receptors; experiment: Receptor affinity in vitro; format: binding
α-adrenergic receptors = experiment: Receptor affinity in vitro; format: binding
β-adrenergic receptors = experiment: Receptor affinity in vitro; format: binding
[8] = test system: muscarinic (M1-5) receptors; experiment: Receptor affinity in vitro; format: binding
[9] = test system: histamine (H1-4) receptors; experiment: Receptor affinity in vitro; format: binding
[10] = test system: dopamine (D1-5) receptors; experiment: Receptor affinity in vitro; format: binding
opiate receptors = experiment: Receptor affinity in vitro; format: binding
benzodiazepine receptors = experiment: Receptor affinity in vitro; format: binding
[11] = test system: γ-aminobutyric acid (GABA) receptors; experiment: Receptor affinity in vitro; format: binding
Ca^++ channels = experiment: Ion channel affinity; format: binding
K^+ channels = experiment: Ion channel affinity; format: binding
Na^+ channels = experiment: Ion channel affinity; format: binding
Cl^− channels = experiment: Ion channel affinity; format: binding
[12] = target: human monoamine oxidase MAO-A (Homo sapiens, UniProt P21397); experiment: Enzyme inhibition; format: biochemical
human monoamine oxidase MAO-A, sequence (P21397 whole entry): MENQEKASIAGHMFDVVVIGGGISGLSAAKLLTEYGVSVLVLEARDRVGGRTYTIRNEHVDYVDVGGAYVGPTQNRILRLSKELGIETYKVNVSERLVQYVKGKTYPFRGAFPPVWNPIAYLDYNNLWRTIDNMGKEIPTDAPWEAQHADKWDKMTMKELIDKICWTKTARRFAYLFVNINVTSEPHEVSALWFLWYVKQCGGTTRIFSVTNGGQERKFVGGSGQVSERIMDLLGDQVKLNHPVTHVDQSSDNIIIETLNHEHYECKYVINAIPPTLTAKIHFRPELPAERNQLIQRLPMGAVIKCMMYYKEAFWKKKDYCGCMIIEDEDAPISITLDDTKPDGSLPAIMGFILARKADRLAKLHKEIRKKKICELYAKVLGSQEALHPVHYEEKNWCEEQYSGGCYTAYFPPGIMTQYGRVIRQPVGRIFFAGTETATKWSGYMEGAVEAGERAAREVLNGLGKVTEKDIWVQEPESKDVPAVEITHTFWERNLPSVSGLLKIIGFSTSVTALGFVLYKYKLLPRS

[13] = target: human monoamine oxidase MAO-B (Homo sapiens, UniProt P27338); experiment: Enzyme inhibition; format: biochemical
human monoamine oxidase MAO-B, sequence (P27338 whole entry): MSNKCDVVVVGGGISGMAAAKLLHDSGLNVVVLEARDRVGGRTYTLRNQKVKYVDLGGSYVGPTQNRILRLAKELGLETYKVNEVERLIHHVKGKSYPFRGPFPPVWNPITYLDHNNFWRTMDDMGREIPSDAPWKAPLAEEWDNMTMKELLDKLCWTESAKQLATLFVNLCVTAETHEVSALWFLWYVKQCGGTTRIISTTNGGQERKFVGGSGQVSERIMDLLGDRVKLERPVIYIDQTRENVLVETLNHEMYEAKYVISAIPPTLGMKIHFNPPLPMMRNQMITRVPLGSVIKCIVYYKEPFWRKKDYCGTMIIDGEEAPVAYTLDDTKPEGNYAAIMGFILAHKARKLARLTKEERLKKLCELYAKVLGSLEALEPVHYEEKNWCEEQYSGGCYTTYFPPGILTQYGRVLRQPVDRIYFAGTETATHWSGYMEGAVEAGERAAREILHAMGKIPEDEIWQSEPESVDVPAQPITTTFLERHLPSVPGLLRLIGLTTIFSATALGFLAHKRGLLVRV

acetylcholinesterase = acetylcholinesterase (Homo sapiens, UniProt P22303); experiment: Enzyme inhibition; format: biochemical
acetylcholinesterase, sequence (P22303 32-614, species assumed): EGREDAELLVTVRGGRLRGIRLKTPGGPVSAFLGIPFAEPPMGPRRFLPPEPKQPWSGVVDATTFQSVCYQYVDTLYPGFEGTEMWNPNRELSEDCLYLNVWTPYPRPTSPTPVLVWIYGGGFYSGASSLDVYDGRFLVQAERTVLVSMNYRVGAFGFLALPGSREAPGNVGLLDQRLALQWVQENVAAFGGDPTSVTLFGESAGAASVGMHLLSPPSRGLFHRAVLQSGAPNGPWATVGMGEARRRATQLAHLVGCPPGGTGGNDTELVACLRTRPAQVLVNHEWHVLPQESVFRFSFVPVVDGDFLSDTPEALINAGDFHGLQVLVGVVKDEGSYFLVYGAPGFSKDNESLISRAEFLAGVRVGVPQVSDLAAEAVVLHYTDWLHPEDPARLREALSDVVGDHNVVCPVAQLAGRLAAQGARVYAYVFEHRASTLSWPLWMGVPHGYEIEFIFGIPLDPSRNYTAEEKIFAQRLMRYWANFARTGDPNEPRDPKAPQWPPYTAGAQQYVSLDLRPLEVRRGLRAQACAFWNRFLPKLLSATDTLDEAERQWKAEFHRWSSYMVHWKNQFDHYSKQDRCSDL

rats [14] = experiment: Reproductive toxicity in rats (dead fetuses in utero); format: in vivo, rat; settings: 5 mg/kg/day (0.25 times the MRHD on a mg/m^2 basis)
mice = experiment: Embryotoxicity/teratogenicity in mice, period of organogenesis; format: in vivo, mouse; settings: up to 125 mg/kg/day (3 times the MRHD)
rabbits = experiment: Embryotoxicity/teratogenicity in rabbits, period of organogenesis; format: in vivo, rabbit; settings: up to 60 mg/kg/day (6 times the MRHD)
rats [15] = experiment: Oral administration to rats during late gestation; format: in vivo
Procedure: The no-effect dose for maternal and offspring toxicity was 2.5 mg/kg/day (approximately 0.1 times the MRHD on a mg/m^2 basis).

rats [16] = settings: rat, in vivo, 50 mg/kg/day
[17] = test system: bacterial reverse mutation; experiment: In vitro bacterial reverse mutation assay (Ames test); format: cell-based
[18] = test system: L5178Y TK+/− mouse lymphoma; format: cell-based
human lymphocytes = format: cell-based
mouse = settings: in vivo
primate = settings: in vivo
Description: (§1) The clinical significance of the finding is not known.

rats [19] = settings: rat, in vivo, 15 mg/kg
Description: as §1

rat = settings: in vivo
[20] = in vivo
Description: Milnacipran is not a controlled substance.
These withdrawal symptoms can be severe. Thus, in certain embodiments, milnacipran hydrochloride should be tapered and not abruptly discontinued after extended use.

uptake of dopamine [21] = target: T1, uptake of dopamine; settings: cited from earlier work
[22] = oral 14C-milnacipran hydrochloride

With CCN(CC)C(=O)[C@]1(c2ccccc2)C[C@@H]1CN.Cl [(1R,2S) enantiomer, (1R,2S)-2-aminomethyl-1-phenyl-N,N-diethylcyclopropanecarboxamide hydrochloride] as the molecule, how does the half-life (Human pharmacokinetics; human) read?
Its half-life is 4 to 6 h.

For CCN(CC)C(=O)[C@@]1(c2ccccc2)C[C@H]1CN.Cl [(1S,2R) enantiomer, (1S,2R)-2-aminomethyl-1-phenyl-N,N-diethylcyclopropanecarboxamide hydrochloride], which half-life (Human pharmacokinetics; human) is on record?
The half-life was 8 to 10 h.

With CCNC(=O)[C@]1(c2ccccc2)C[C@@H]1CN [N-desethyl milnacipran] as the molecule, how does the “dose excreted in urine as this species” value [1, 22] read?
Its value is “Approximately 8%”.

Which “dose excreted in urine as this species” value [1, 22] does the source give for CCN(CC)C(=O)[C@]1(c2ccccc2)C[C@@H]1CNC(=O)O[C@@H]1O[C@H](C(=O)O)[C@@H](O)[C@H](O)[C@H]1O [d-milnacipran carbamoyl-O-glucuronide] here?
Its value is “approximately 2%”.

For CCN(CC)C(=O)[C@]1(c2ccccc2)C[C@@H]1CN [d-milnacipran], which “dose excreted in urine as this species” value [1, 22] is on record?
Its value is 31%.

For CCN(CC)C(=O)[C@@]1(c2ccccc2)C[C@H]1CNC(=O)O[C@@H]1O[C@H](C(=O)O)[C@@H](O)[C@H](O)[C@H]1O [l-milnacipran carbamoyl-O-glucuronide], which “dose excreted in urine as this species” value [1, 22] is on record?
Its value is “approximately 17%”.

Which “dose excreted in urine as this species” value [1, 22] does the source give for CCN(CC)C(=O)[C@@]1(c2ccccc2)C[C@H]1CN [l-milnacipran] here?
Its value is 24%.

For CCN(CC)C(=O)C1(c2ccccc2)CC1CN (stereo not shown) [milnacipran], which “withdrawal due to constipation” value (fibromyalgia patients) is on record?
The value was 1%.

What about the “withdrawal due to dizziness” value (fibromyalgia patients) of the same molecule?
The value was 1%.

What about the “withdrawal due to headache” value (fibromyalgia patients) of the same molecule?
The value was 2%.

What about the “withdrawal due to heart rate increased” value (fibromyalgia patients) of the same molecule?
Its value is 1%.

What about the “withdrawal due to hyperhidrosis” value (fibromyalgia patients) of the same molecule?
Its value is 1%.

And the “withdrawal due to nausea” value (fibromyalgia patients)?
The value was 6%.

And the “withdrawal due to palpitations” value (fibromyalgia patients)?
Its value is 3%.

And the “withdrawal due to vomiting” value (fibromyalgia patients)?
The value was 1%.

And the “withdrawal symptoms following discontinuation” value (fibromyalgia patients)?
Its value is “Withdrawal symptoms have been observed”.

What about the liver findings (patients) of the same molecule?
The liver findings was “cases of increased liver enzymes and reports of severe liver injury, including fulminant hepatitis”.

What about the “dose excreted unchanged in urine” value (Human pharmacokinetics; human) of the same molecule?
Its value is 55%.

And the half-life (Human pharmacokinetics; human)?
Its half-life is 6 to 8 h.

And the “time to steady-state levels” value (Human pharmacokinetics; human)?
The value was 36 to 48 h.

And the Vd (Human pharmacokinetics; human, iv)?
The Vd was ~400 L.

What about the bioavailability (Human pharmacokinetics; human, po) of the same molecule?
The bioavailability was 85 to 90%.

What about the exposure vs dose (Human pharmacokinetics) of the same molecule?
Its exposure vs dose is “increased proportionally”.

What about the “dose excreted in urine as this species” value ([1]; human, in vivo, po) of the same molecule?
The value was “approximately 55%”.

What about the “higher AUC0-∞ than healthy subjects” value ([2]; human, 50 mg) of the same molecule?
The value was 31%.

And the “higher T½ than healthy subjects” value ([2]; human, 50 mg)?
Its value is 55%.

And the “T½ vs healthy subjects” value [2]?
The value was “similar”.

And the “higher AUC” value ([3]; both)?
Its value is “about 20%”.

And the “higher Cmax” value ([3]; both)?
The value was “about 20%”.

And the “higher AUC” value [3]?
Its value is “about 30%”.

What about the “higher Cmax” value [3] of the same molecule?
Its value is “about 30%”.

And the “adverse events after switching from clomipramine” value [4]?
The value was “an increase in adverse events (e.g., euphoria and postural hypotension)”.

What about the “inhibition of neuronal serotonin reuptake” value [5] of the same molecule?
The value was “potent inhibitor”.

And the “effect on uptake of dopamine or other neurotransmitters” value (uptake of dopamine [6])?
Its value is “without directly affecting”.

What about the affinity [7] of the same molecule?
Its affinity is “no significant affinity”.

And the affinity (α-adrenergic receptors)?
The affinity was “no significant affinity”.

And the affinity (β-adrenergic receptors)?
Its affinity is “no significant affinity”.

What about the affinity [8] of the same molecule?
Its affinity is “no significant affinity”.

And the affinity [9]?
Its affinity is “no significant affinity”.

And the affinity [10]?
The affinity was “no significant affinity”.

And the affinity (opiate receptors)?
The affinity was “no significant affinity”.

What about the affinity (benzodiazepine receptors) of the same molecule?
Its affinity is “no significant affinity”.

What about the affinity [11] of the same molecule?
Its affinity is “no significant affinity”.

What about the affinity (Ca^++ channels) of the same molecule?
The affinity was “no significant affinity”.

And the affinity (K^+ channels)?
Its affinity is “no significant affinity”.

And the affinity (Na^+ channels)?
Its affinity is “no significant affinity”.

What about the affinity (Cl^− channels) of the same molecule?
The affinity was “no significant affinity”.

And the inhibition of activity [12]?
The inhibition of activity was “does not inhibit”.

What about the inhibition of activity [13] of the same molecule?
The inhibition of activity was “does not inhibit”.

And the inhibition of activity (acetylcholinesterase)?
Its inhibition of activity is “does not inhibit”.

What about the “incidence of dead fetuses in utero” value (rats [14]) of the same molecule?
The value was “increased the incidence of dead fetuses in utero”.

What about the embryotoxicity or teratogenicity (mice) of the same molecule?
Its embryotoxicity or teratogenicity is “did not result in embryotoxicity or teratogenicity”.

And the embryotoxicity or teratogenicity (rabbits)?
The embryotoxicity or teratogenicity was “did not result in embryotoxicity or teratogenicity”.

And the “pup body weight and viability on postpartum day 4” value (rats [15]; rat, in vivo, po, 5 mg/kg/day)?
Its value is “decrease in pup body weight and viability”.

And the “no-effect dose for maternal and offspring toxicity” value (rats [15]; rats (approximately 0.1 times the MRHD))?
Its value is 2.5 mg/kg/day.

And the tumor incidence (rats [16])?
Its tumor incidence is “statistically significant increase in the incidence of thyroid C-cell adenomas and combined adenomas and carcinomas in males”.

What about the mutagenicity [17] of the same molecule?
The mutagenicity was “not mutagenic”.

And the mutagenicity [18]?
Its mutagenicity is “not mutagenic”.

What about the clastogenicity (human lymphocytes) of the same molecule?
The clastogenicity was “not clastogenic”.

And the clastogenicity (mouse)?
The clastogenicity was “not clastogenic”.

And the “keratitis of the eye” value (primate)?
The value was “did not show this response”.

And the hepatic findings (rats [19])?
The hepatic findings was “increased incidences of centrilobular vacuolation of the liver in male rats and eosinophilic foci in male and female rats”.

What about the “keratitis of the eye” value (rats [19]) of the same molecule?
The value was “increased incidence of keratitis of the eye”.

And the “keratitis of the eye” value (rat)?
The value was “did not show this response”.

What about the “behavioral signs indicative of abuse potential” value [20] of the same molecule?
Its value is “did not produce behavioral signs indicative of abuse potential”.

What about the physical dependence [20] of the same molecule?
The physical dependence was “produces physical dependence”.

What about the “effect on uptake of dopamine” value (uptake of dopamine [21]) of the same molecule?
Its value is “does not affect”.
